Test results taken from patent US9375438B2, “Inhibitors of NCCa-ATP channels for therapy” (University of Maryland, Baltimore, priority 2007, dated 2016).

Columns and labels:
[1] = system: rats with hemi-cervical spinal cord contusion (SCI); assay: SCI model: extravasated blood in cord (tissue blood); assay type: in vivo, rat; settings: for PHN: following SCI (summary)
Procedure: (§1) SCI injury model. This study was performed in accordance with the guidelines of the Institutional Animal Care and Use Committee. Adult female Long-Evans rats (275-350 gm) were anesthetized (Ketamine, 60 mg/kg plus Xylazine, 7.5 mg/kg, i.p.). The dura at C4-5 was exposed via a left hemilaminectomy. A hemi-cervical spinal cord contusion was created using a blunt force impactor (1.3-mm impactor head driven by a 10 gm weight dropped vertically 25 mm) (Soblosky et al., 2001; Gensel et al., 2006). After SCI, animals were given 10 ml of glucose-free normal saline s.q. Rectal temperature was maintained at ˜37° C. using a servo-controlled warming blanket.
(§2) For in vivo gene suppression of SUR1, we used oligodeoxynucleotides that were phosphorothioated at 4 distal bonds to protect against endogenous nucleases (35).
Tissue blood. Rats were sacrificed at various times after SCI (n=5-11 rats/group), were perfused with heparinized saline to remove intravascular blood, and 5-mm segments of cord encompassing the lesion were homogenized and processed as described (Choudhri et al., 1997).

[2] = system: rats with hemi-cervical spinal cord contusion (SCI); assay: SCI model: lesion size; assay type: in vivo, rat; settings: following SCI; compared to controls (summary)
Procedure: as §1, with “blanket. Blood gases and serum glucose 10-15 min post-SCI were: pO2, 95±6 mm Hg; pCO2, 46±3 mm Hg; pH, 7.33±0.01; glucose 258±17 mg/dl in controls and pO2, 96±7 mm Hg; pCO2, 45±2 mm Hg; pH, 7.37±0.01; glucose 242±14 mg/dl in glibenclamide-treated animals.” for “blanket.”
Drug delivery. […] During the course of the project, slightly different formulations of drug were used, with the best results obtained using stock solutions made by placing 50 mg (or 25 mg) of drug into 10 ml DMSO, and infusion solutions made by placing 400 μl (or 800 μl) stock into 4.6 ml (or 4.2 ml) unbuffered saline (0.9% NaCl) and adjusting the pH to ˜8.5 using 0.1 N NaOH.
Lesion size. At 7 d post-SCI, cords were paraffin sectioned and stained with H&E. Lesion volumes were calculated from lesion areas measured on serial sections every 250 μm.
(§3) Immunohistochemistry. Cryosections were immunolabeled (Chen et al., 2003; Simard et al., 2006) using primary antibodies directed against SUR1 (Santa Cruz, C-16; 1:200; 1 h at RT, 48 h at 4° C.), SUR2 (Santa Cruz, H-80; 1:200; 1 h at RT, 48 h at 4° C.), GFAP (Sigma, C-9205; 1:500), and vimentin (Sigma, monoclonal CY3 conjugated; 1:100). Quantitative immunofluorescence was performed as described (Gerzanich et al., 2003).

[3] = system: rats with hemi-cervical spinal cord contusion (SCI); assay: SCI model: neurobehavioral assessment (inclined plane, paw placement, rearing); assay type: in vivo, rat
Procedure: as §1, §2
Neurobehavioral Assessment. All measurements were performed by blinded evaluators. Performance on the inclined plane was evaluated as described (Rivlin and Tator, 1977). To assess paw placement and vertical exploration (rearing) (Nikulina et al., 2004) animals were videotaped while in a translucent cylinder (19×20 cm). Rearing was quantified as the number of seconds spent with both front paws elevated above shoulder-height during a 3-min period of observation.

[4] = molecular target: native and recombinant β-cell KATP channels (Homo sapiens, UniProt Q09428); settings: read-out: IC50, block of native and recombinant β-cell KATP channels; cited from earlier work
Chain of native and recombinant β-cell KATP channels (Q09428 whole entry): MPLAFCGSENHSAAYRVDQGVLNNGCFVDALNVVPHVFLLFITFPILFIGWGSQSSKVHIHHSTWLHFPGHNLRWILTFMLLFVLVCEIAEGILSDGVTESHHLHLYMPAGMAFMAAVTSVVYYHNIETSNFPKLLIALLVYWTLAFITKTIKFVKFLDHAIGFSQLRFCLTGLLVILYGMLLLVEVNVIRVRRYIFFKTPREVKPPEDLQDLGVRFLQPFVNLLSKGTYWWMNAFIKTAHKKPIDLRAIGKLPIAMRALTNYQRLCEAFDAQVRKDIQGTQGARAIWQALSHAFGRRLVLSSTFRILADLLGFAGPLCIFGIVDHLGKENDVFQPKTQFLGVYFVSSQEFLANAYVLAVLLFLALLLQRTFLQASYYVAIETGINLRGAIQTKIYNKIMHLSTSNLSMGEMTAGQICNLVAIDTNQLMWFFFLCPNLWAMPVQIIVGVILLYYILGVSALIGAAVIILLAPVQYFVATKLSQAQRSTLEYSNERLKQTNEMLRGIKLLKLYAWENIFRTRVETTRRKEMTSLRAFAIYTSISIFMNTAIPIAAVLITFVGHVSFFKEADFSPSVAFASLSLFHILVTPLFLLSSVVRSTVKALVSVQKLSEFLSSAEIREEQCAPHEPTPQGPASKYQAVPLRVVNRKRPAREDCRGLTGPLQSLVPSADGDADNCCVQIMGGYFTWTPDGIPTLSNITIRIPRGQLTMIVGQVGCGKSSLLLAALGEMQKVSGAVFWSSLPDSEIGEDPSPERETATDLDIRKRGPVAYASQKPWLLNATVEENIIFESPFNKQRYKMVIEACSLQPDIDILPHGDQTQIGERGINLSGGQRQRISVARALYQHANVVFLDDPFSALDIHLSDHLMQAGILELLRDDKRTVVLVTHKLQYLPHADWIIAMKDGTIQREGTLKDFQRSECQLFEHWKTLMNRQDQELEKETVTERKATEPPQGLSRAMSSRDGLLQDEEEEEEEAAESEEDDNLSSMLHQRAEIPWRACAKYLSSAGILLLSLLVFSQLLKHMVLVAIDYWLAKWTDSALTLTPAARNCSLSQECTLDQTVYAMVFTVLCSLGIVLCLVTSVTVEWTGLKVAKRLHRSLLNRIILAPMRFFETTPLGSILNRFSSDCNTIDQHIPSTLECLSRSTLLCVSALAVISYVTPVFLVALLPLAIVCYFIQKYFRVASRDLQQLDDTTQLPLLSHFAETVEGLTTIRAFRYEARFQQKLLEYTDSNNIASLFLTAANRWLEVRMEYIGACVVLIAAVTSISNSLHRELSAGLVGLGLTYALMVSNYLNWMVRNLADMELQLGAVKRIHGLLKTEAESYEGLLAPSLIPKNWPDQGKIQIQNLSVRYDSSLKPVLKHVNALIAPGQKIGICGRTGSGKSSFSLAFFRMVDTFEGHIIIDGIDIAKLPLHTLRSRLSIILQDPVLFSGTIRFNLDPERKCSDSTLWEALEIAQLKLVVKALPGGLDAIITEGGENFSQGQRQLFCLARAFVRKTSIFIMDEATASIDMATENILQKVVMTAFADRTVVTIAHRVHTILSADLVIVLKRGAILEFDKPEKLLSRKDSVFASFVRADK
Chain of native and recombinant β-cell KATP channels (Q14654 whole entry partner): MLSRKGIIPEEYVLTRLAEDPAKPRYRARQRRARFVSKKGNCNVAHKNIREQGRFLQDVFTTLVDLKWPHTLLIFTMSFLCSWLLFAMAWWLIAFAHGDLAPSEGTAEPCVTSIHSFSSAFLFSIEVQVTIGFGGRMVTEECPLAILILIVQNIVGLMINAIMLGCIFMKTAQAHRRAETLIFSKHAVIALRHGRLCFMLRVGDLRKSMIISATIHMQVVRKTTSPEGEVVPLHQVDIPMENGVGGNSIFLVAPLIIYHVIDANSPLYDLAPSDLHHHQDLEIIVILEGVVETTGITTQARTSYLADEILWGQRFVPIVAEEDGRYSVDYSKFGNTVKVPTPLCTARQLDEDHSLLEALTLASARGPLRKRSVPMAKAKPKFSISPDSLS

[5] = molecular target: T1, SUR1-regulated NCCa-ATP channel in human aortic endothelial cells (Homo sapiens, UniProt Q09428); assay: Perforated-patch whole-cell recording of endothelial cells, channel activation by diazoxide; assay type: cell-based
T1 construct: host or cells: human aortic endothelial cells cultured under hypoxia
T1 sequence (Q09428 whole entry): as the sequence (Q09428 whole entry) above
T1 sequence (Q8TD43 whole entry partner): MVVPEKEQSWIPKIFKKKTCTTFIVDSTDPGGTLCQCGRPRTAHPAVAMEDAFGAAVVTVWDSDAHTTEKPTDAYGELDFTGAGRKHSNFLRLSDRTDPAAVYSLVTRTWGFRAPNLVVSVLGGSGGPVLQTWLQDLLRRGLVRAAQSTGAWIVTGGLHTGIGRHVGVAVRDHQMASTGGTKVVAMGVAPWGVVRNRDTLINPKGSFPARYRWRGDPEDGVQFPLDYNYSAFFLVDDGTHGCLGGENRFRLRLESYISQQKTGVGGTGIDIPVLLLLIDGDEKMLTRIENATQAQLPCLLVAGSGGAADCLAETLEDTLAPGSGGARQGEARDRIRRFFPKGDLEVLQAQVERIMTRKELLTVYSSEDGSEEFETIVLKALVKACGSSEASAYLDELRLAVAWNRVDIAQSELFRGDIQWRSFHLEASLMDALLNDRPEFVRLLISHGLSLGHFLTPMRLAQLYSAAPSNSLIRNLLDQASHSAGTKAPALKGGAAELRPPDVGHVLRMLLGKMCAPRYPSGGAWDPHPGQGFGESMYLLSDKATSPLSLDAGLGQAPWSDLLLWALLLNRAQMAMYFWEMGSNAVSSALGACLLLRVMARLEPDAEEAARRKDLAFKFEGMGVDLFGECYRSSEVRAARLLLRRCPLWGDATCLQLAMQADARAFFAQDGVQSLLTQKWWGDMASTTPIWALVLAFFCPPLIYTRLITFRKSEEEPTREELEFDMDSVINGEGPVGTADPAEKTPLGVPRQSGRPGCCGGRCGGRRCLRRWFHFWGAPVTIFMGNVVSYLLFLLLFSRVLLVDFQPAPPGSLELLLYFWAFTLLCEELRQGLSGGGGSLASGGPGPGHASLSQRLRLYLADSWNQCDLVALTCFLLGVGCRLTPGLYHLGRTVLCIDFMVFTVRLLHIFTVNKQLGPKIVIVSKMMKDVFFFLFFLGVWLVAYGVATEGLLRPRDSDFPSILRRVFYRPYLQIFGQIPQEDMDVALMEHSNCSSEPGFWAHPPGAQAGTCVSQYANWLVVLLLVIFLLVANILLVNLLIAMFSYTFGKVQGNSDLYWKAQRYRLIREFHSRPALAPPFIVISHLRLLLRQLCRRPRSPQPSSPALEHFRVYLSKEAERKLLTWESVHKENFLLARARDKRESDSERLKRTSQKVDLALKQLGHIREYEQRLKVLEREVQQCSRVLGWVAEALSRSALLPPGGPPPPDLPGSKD
Procedure: Patch clamp of endothelial cells was performed using a nystatin-perforated patch technique, to maintain the metabolic integrity of the cells. The identity of the activated channel can be assessed by measurement of the “reversal potential”, the potential at which an ion channel current reverses from inward to outward. With physiologically relevant concentrations of ions intracellularly and extracellularly (high potassium inside, high sodium outside), the reversal potential can unambiguously distinguish between a K^+ channel current such as KATP, which reverses negative to −50 mV and a non-selective cation channel current such as NCCa-ATP, which reverses near 0 mV.
Cell culture. Endothelial cell cultures from human brain microvessels, human aorta (ScienCell Research Laboratories), and murine brain microvessels (bEnd.3; ATCC), were grown at low density using media and supplements recommended by suppliers.

SUR1 [6] = assay: SUR1 knock-down in gliotic capsule (gelatin sponge implant), Western blot and astrocyte patch clamp; assay type: in vivo, rat; settings: vs Scr-ODN
Procedure: To validate the antisense strategy, it was first implemented in the model that was originally used for the discovery of the NCCa-ATP channel, wherein a gelatin sponge is implanted into the parietal lobe to stimulate formation of a gliotic capsule (Chen and Simard, 2001). Here, animals were also fitted with mini-osmotic pumps that delivered oligodeoxynucleotides (ODN), either antisense (AS) or scrambled (Scr), continuously for 7 d into the injury site.
SUR1 knock-down in astrocytes was performed in triplicates by implanting rats with gelatin sponges in the parietal lobe to induce formation of a gliotic capsule containing reactive astrocytes that express the SUR1-regulated NCCa-ATP channel (Chen and Simard, 2001; Chen et al., 2003). At the same time, they were implanted with mini-osmotic pumps (Alzet, model 2002; 14-day pump) placed in the dorsal thoracolumbar region that contained ODN (711 μg/ml delivered @ 0.5 μl/h, yielding 1500 picomoles/day), with the delivery catheter placed directly into the site of the gelatin sponge implant in the brain. Animals were infused with Src-ODN or AS-ODN, as above but not phosphorothioated. After 10-14 days, the gelatin sponge plus encapsulating gliotic tissues were harvested and processed either for Western immunoblots or to obtain fresh reactive astrocytes for patch clamp electrophysiology. […]

SUR1 [7] = assay: SCI model: SUR1 immunolabeling of cord after i.v. ODN; assay type: in vivo, rat
Procedure: as §1, with “blanket. Blood gases and serum glucose 10-15 min post-SCI were: pO2, 95±6 mm Hg; pCO2, 46±3 mm Hg; pH, 7.33±0.01; glucose 258±17 mg/dl in controls and pO2, 96±7 mm Hg; pCO2, 45±2 mm Hg; pH, 7.37±0.01; glucose 242±14 mg/dl in glibenclamide-treated animals.” for “blanket.”
For in vivo gene suppression of SUR1, we used oligodeoxynucleotides that were phosphorothioated at 4 distal bonds to protect against endogenous nucleases (35). Within a few min of SCI, mini-osmotic pumps (Alzet 2002, 0.5 μl/h; Durect Corporation) with jugular vein catheters were implanted that delivered either scrambled sequence ODN (Scr-ODN) (5′-[…]-3′; SEQ ID NO:1) or antisense ODN (AS-ODN) (5′-[…]-3′; SEQ ID NO:2) (Yokoshiki et al., 1999) in PBS at a rate of 1 mg/rat/24 h.
as §3

[8] = molecular target: SUR1-regulated NCCa-ATP channels (Rattus norvegicus, UniProt Q09429); settings: read-out: EC50, block of NCCa-ATP channel; cited from earlier work
[9] = repaglinide 200 ng/h s.q., n=3-8/group
[10] = 1 d post-SCI, ODN i.v., vs Scr-ODN

With `CCOc1cc(CC(=O)N[C@@H](CC(C)C)c2ccccc2N2CCCCC2)ccc1C(=O)O` [repaglinide] the “blood in cord homogenates” value ([1]; 1 d post-SCI, repaglinide 200 ng/h s.q., 5-8 rats/group) was 1.2 ± 0.1 µL, the PHN [1] was “significantly reduced” and the “reduction in lesion volume” value [2] was 3 fold. The vertical exploration ([3]; repaglinide 200 ng/h s.q., 5-6 rats/group) was 27 ± 6 s, the “inclined plane, head down” value [3, 9] was 47±3 degrees and the “inclined plane, head up” value [3, 9] was 62±2 degrees. For the same compound, the IC50 [4] was 0.9 to 7 nM.

For `CC1=NS(=O)(=O)c2cc(Cl)ccc2N1` [diazoxide], the “current activated by diazoxide” value ([5]; endothelial cells cultured under hypoxic conditions) was “activated an ohmic current that reversed near 0 mV” and the “current activated by diazoxide” value ([5]; endothelial cells cultured under normoxic conditions) was “either had no effect or, in half of the cells, activated an outwardly rectifying current”.

In the case of “5′-GGCCGAGTGGTTCTCGGT-3′ (DNA, backbone and methylation of C not given here; phosphorothioate at 4 distal bonds) [AS-ODN]”, the “blood in cord homogenates (effect)” value [1, 10] is reported as “reduced”, the PHN [1] is reported as “significantly reduced” and the “reduction in lesion volume” value [2] is reported as 3 fold. The “performance in vertical exploration” value [3, 10] was “significantly better performance”, the “performance on the inclined plane” value [3, 10] was “significantly better performance” and the “SUR1 protein in gliotic capsule (Western blot)” value (SUR1 [6]; ODN infused into injury site) was “significant reduction”. The “astrocyte depolarization on ATP depletion by Na azide” value (SUR1 [6]; astrocytes from gliotic capsule) was “depolarized only slightly or not at all”, the “SUR1 immunolabeling of cord” value (SUR1 [7]; 6 h post-SCI, ODN i.v. 1 mg/rat/24 h, vs controls) was “significantly less immunolabeling” and the “normal expression of SUR1 in dorsal horn cells” value (SUR1 [7]; post-SCI, ODN i.v.) was “did not affect”. The “necrotic void beneath impact site” value (SUR1 [7]; post-SCI, ODN i.v., vs Scr-ODN) was “no necrotic void was evident”.

In the case of `Nc1ncnc2c1ncn2[C@@H]1O[C@H](COP(=O)(O)OP(=O)(O)OP(=O)(O)O)[C@@H](O)[C@H]1O` [ATP], the EC50 [8] is listed as 790 nM.
